In publication PMC10510397, “Development of a Selective Peptide κ-Opioid Receptor Antagonist by Late-Stage Functionalization with Cysteine Staples” (Journal of Medicinal Chemistry, 2023):
Structures can show the parent of a compound that is named as a salt. Where two headings read alike, the source gives them in different places. Numbered stars: 1 amine (or outer) side, 2 acyl side, 3 side chain; on linkers, the order of the positions; unused ones are H or OH. Bridge positions count the residues as written; N and C are the ends. Square brackets hold non-standard residues; d marks the D form. Peptide text beside a SMILES is read from it. CH2COCH2 = O=C(C[*:1])C[*:2]; CH2 = C([*:1])[*:2]; Mpa = O=C(O)CCS

How the values were obtained:
mouse KOR [1] = biological target: T1, mouse KOR (Mus musculus, UniProt P33534); assay: biochemical; format: binding; set-up: expressed in transfected cells
T1 sequence (P33534 whole entry): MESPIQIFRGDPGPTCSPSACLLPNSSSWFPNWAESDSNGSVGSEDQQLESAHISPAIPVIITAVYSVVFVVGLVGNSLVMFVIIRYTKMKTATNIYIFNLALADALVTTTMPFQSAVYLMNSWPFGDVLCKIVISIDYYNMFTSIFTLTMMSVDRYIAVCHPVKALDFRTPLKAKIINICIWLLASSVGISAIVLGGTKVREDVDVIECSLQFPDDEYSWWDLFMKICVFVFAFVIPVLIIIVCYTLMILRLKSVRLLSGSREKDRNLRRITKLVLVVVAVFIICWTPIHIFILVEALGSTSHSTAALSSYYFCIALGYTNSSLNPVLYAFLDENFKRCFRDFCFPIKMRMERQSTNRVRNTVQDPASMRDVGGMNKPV

mouse KOR [2] = biological target: T1, mouse KOR; assay: cell-based; format: cell-based; set-up: expressed in transfected cells; settings: for activity at KOR in the functional cAMP assay: agonist mode, ligand on its own, up to concentrations of 10 μM; for Emax: read-out: potency/efficacy cAMP Emax ± SD; for EC50: HEK293 cells stably expressing mouse KOR, forskolin 10 μM, n.a. = not active, read-out: potency/efficacy cAMP EC50 ± SD
mouse KOR [3] = biological target: T1, mouse KOR; format: cell-based; set-up: expressed in transfected cells; host or cells: HEK293 (transient co-transfection, 1:10 ratio); settings: 10 μM ligand; compared to dynA1–13-NH2 = 100%
[4] = stability assay in human serum (RP-HPLC); format: in vitro ADME; settings: 37 °C
Protocol: The stability of peptide ligands was determined with human serum from male AB plasma (Sigma) centrifuged at 13,300g for 10 min to remove the lipid content. The supernatant was preincubated at 37 °C for 5 min before 10 μL of a peptide stock solution (3 mg/mL in H2O) was added to 300 μL of serum. A reference solution was prepared in phosphate-buffered saline (PBS) buffer. The serum was incubated at 37 °C and analyzed over a time course of 5 h with 40 μL of aliquots removed at time points T = 0, 15, 30, 60, 90, 120, 240, and 300 min. Each aliquot was quenched with 40 μL of 5 M urea and incubated on ice for 10 min. The proteins were then precipitated with the addition of 40 μL of 20% (w/v) trichloroacetic acid and further incubated on ice for 10 min. The samples were centrifuged for 10 min at 15,000g, and the supernatant was analyzed by analytical RP-HPLC using a Phenomenex Jupiter C18 column (5 μm, 300 Å, 150 × 2 mm) using a linear gradient from 0 to 50% solvent B (90% acetonitrile, 10% H2O, and 0.05% trifluoroacetic acid) and a flow rate of 1 mL/min. The percentage of peptide remaining was determined by the integration of the analyte in comparison to T = 0 min. The peptides were analyzed in triplicate, and data were fitted to an exponential decay curve using GraphPad Prism software.

DRG neurons = assay: single-cell calcium microfluorimetry in DRG neurons; format: cell-based, mouse; settings: 0.5 μM pre-applied, U50,488 10 μM
mice [5] = assay: radiant heat tail-flick assay; format: in vivo, mouse; settings: 10 mg/kg s.c., 24 h before U50,488 5 mg/kg
Protocol: (§1) Breeding, euthanasia, and all procedures of animal handling were performed according to the regulations of animal care and welfare. Experiments were carried out in accordance with the European Communities Council Directive of 24 November 1986 (86/609/EEC). Behavioral experiments were performed in male CD1 mice (8–10 weeks old) purchased from Janvier Labs (Le Genest-Saint-Isle, France). All animal care and experimental procedures were in accordance with the ethical guidelines for the animal welfare standards of the European Communities Council Directive (2010/63/EU) and were approved by the Committee of Animal Care of the Austrian Federal Ministry of Science and Research. […]
The radiant heat tail-flick test was performed using an UB 37360 Ugo Basile analgesiometer (Ugo Basile s.r.l., Varese, Italy) as described previously.[52] The reaction time required by the mouse to remove its tail after application of the radiant heat was measured and defined as the tail-flick latency (in seconds). Tail-flick latencies were measured before and after s.c. administration of saline (control) or U50,488 (5 mg/kg) (i.e., 30 and 60 min) (test latency, TL). […] The antinociceptive effect (as the percentage of the maximum possible effect, % MPE) was calculated according to the formula = [(TL – BL)/(cutoff time – BL)] × 100 where TL represents the test latency and BL is the basal latency.

mice [6] = assay: rotarod test; format: in vivo, mouse; settings: 10 mg/kg s.c., 24 h before U50,488 5 mg/kg; at 30 min
Protocol: as §1, with “Research. Mice were group-housed in a temperature-controlled specific pathogen-free room with a 12 h light/dark cycle and with free access to food and water.” for “Research.”
The rotarod test was performed using the accelerating rotarod treadmill (Acceler Rota-Rod 7650, Ugo Basile s.r.l., Varese, Italy) for mice (diameter 3.5 cm) as described previously.[53] […] The time spent on the drum was recorded for each mouse before (baseline) and at 30 min after s.c. administration of saline (control) or U50,488 (5 mg/kg). […] The rotarod data are expressed as percentage (%) changes from the rotarod latencies obtained before (baseline, BL) and after drug administration (test, TL) calculated as 100 × (TL/BL).

[7] = 1 nM [3H]-diprenorphine, HEK293 cell membranes stably expressing mouse KOR, read-out: affinity Ki ± SD

## CC[C@H](C)[C@@H]1NC(=O)[C@H](CCCNC(=N)N)NC(=O)[C@H](CCCNC(=N)N)NC(=O)[C@H](CC(C)C)NC(=O)[C@H](Cc2ccccc2)NC(=O)CNC(=O)CNC(=O)[C@H](Cc2ccc(O)cc2)NC(=O)CCSCSC[C@@H](C(=O)N[C@@H](CCCCN)C(=O)N[C@@H](CC(C)C)C(=O)N[C@@H](CCCCN)C(=O)O)NC(=O)[C@H](CCCNC(=N)N)NC1=O [CSD-CH2(1,10)-OH] ([Mpa]YGGFLRRIRCKLK-OH; linker 1-11 via CH2)
Mouse KOR [1]; [7]
  Ki: 31 nM
Mouse KOR [2]
  activity at KOR in the functional cAMP assay: inactive
Mouse KOR [3]
  β-arrestin-2 recruitment efficiency (ligand induced BRET): less than 25%

## CC(C)C[C@H](NC(=O)[C@H](CCCCN)NC(=O)[C@@H]1CCCN1C(=O)[C@H](CCCNC(=N)N)NC(=O)[C@@H]1CSCC(=O)CSCCC(=O)N[C@@H](Cc2ccc(O)cc2)C(=O)NCC(=O)NCC(=O)N[C@@H](Cc2ccccc2)C(=O)N[C@@H](CC(C)C)C(=O)N[C@@H](CCCNC(=N)N)C(=O)N[C@@H](CCCNC(=N)N)C(=O)N1)C(=O)N[C@@H](CCCCN)C(N)=O [CSD-ace(1,8)-NH2] ([Mpa]YGGFLRRCRPKLK-NH2; linker 1-9 via CH2COCH2)
Mouse KOR [2]
  Emax: 73 ± 14%

## CC(C)C[C@H](NC(=O)[C@H](CCCCN)NC(=O)[C@@H]1CCCN1C(=O)[C@H](CCCNC(=N)N)NC(=O)[C@@H]1CSCSCCC(=O)N[C@@H](Cc2ccc(O)cc2)C(=O)NCC(=O)NCC(=O)N[C@@H](Cc2ccccc2)C(=O)N[C@@H](CC(C)C)C(=O)N[C@@H](CCCNC(=N)N)C(=O)N[C@@H](CCCNC(=N)N)C(=O)N1)C(=O)N[C@@H](CCCCN)C(N)=O [CSD-CH2(1,8)-NH2] ([Mpa]YGGFLRRCRPKLK-NH2; linker 1-9 via CH2)
[4]
  t1/2 in human serum: 95 min
Mouse KOR [2]
  activity at KOR in the functional cAMP assay: inactive

## CC(C)C[C@H](NC(=O)[C@H](CCCCN)NC(=O)[C@@H]1CCCN1C(=O)[C@H](CCCNC(=N)N)NC(=O)[C@@H]1CSCC(=O)CSCCC(=O)N[C@@H](Cc2ccc(O)cc2)C(=O)NCC(=O)NCC(=O)N[C@@H](Cc2ccccc2)C(=O)N[C@@H](CC(C)C)C(=O)N[C@@H](CCCNC(=N)N)C(=O)N[C@@H](CCCNC(=N)N)C(=O)N1)C(=O)N[C@@H](CCCCN)C(=O)O [CSD-ace(1,8)-OH] ([Mpa]YGGFLRRCRPKLK-OH; linker 1-9 via CH2COCH2)
Mouse KOR [2]
  Emax: 57 ± 11%

## CC(C)C[C@H](NC(=O)[C@H](CCCCN)NC(=O)[C@@H]1CCCN1C(=O)[C@H](CCCNC(=N)N)NC(=O)[C@@H]1CSCSCCC(=O)N[C@@H](Cc2ccc(O)cc2)C(=O)NCC(=O)NCC(=O)N[C@@H](Cc2ccccc2)C(=O)N[C@@H](CC(C)C)C(=O)N[C@@H](CCCNC(=N)N)C(=O)N[C@@H](CCCNC(=N)N)C(=O)N1)C(=O)N[C@@H](CCCCN)C(=O)O [CSD-CH2(1,8)-OH] ([Mpa]YGGFLRRCRPKLK-OH; linker 1-9 via CH2)
Mouse KOR [2]
  activity at KOR in the functional cAMP assay: inactive

## CC[C@H](C)[C@@H]1NC(=O)[C@H](CCCNC(=N)N)NC(=O)[C@H](CCCNC(=N)N)NC(=O)[C@H](CC(C)C)NC(=O)[C@H](Cc2ccccc2)NC(=O)CNC(=O)CNC(=O)[C@H](Cc2ccc(O)cc2)NC(=O)CCSCSC[C@@H](C(=O)N[C@@H](CCCCN)C(=O)N[C@@H](CC(C)C)C(=O)N[C@@H](CCCCN)C(N)=O)NC(=O)[C@H](CCCNC(=N)N)NC1=O [CSD-CH2(1,10)-NH2] ([Mpa]YGGFLRRIRCKLK-NH2; linker 1-11 via CH2)
Mouse KOR [1]
  Ki: 6 nM
Mouse KOR [1]; [7]
  Ki: 5.6 nM
Mouse KOR [1]; versus counterpart with C-terminal carboxylic acid
  improvement of KOR affinity by C-terminal amidation: ~6 fold
Mouse KOR [2]
  EC50: 540 nM
  Emax: 49 ± 15%
Mouse KOR [3]
  β-arrestin-2 recruitment efficiency (ligand induced BRET): 38%

## CC[C@H](C)[C@H](NC(=O)[C@H](CCCNC(=N)N)NC(=O)[C@H](CCCNC(=N)N)NC(=O)[C@H](CC(C)C)NC(=O)[C@H](Cc1ccccc1)NC(=O)CNC(=O)CNC(=O)[C@@H](N)Cc1ccc(O)cc1)C(=O)N[C@@H](CCCNC(=N)N)C(=O)N1CCC[C@H]1C(=O)N[C@@H](CCCCN)C(=O)N[C@@H](CC(C)C)C(=O)N[C@@H](CCCCN)C(N)=O [dynA1–13-NH2, Dynorphin (dyn) A1–13 amide trifluoroacetate salt, reference compound]
[4]
  t1/2 in human serum: 4 min
Mouse KOR [2]
  EC50: 9.1 nM
  Emax: 100%
Mouse KOR [3]
  β-arrestin-2 recruitment efficiency (ligand induced BRET): 100%

## Oc1ccc2c3c1O[C@H]1c4[nH]c5c(c4C[C@@]4(O)[C@@H](C2)N(CC2CC2)CC[C@]314)C[C@@]1(O)[C@H]2Cc3ccc(O)c4c3[C@@]1(CCN2CC1CC1)[C@H]5O4 [nor-BNI, norbinaltorphimine]
DRG neurons
  effect on U50,488-induced calcium signals in DRG neurons: inhibited the activity of U50,488
Mice [5]
  antagonism of U50,488-induced antinociception: blocked the antinociceptive response of U50,488
Mice [6]
  antagonism of U50,488 effect in the rotarod test: Antagonism
